The values below come from US7449545B2, “Antimicrobial bolisin peptides” (IPF Pharmaceuticals GmbH, priority 2001, dated 2008).

Holding throughout (type): cell-based
Experiment [1] deals with Escherichia coli ATCC 25922. The settings on record: ATCC 25922, 2 h. The text has this: (§1) The bolisin analogues of the present invention were examined for their suitability as antibiotic therapeutical agents by means of various biological tests. Thus, the chemically synthesized peptides were examined for their antimicrobial effectiveness against three Gram-positive and three Gram-negative bacterial strains as well as against a yeast.
(§2) The following microorganisms were used: • Gram-positive: Staphylococcus aureus ATCC 25923 • Enterococcus faecalis ATCC 51299 (vancomycin-resistant) • Streptococcus pneumoniae DSM 11865 (penicillin-resistant) • Gram-negative: Escherichia coli ATCC 25922 • Pseudomonas aeruginosa ATCC 9027 • Klebsiella pneumoniae ATCC 10031 • Yeast: Candida albicans ATCC 10231
(§3) The antibiotic activity of bolisin analogues was examined by determining the minimum inhibition concentration. […] This method allows to obtain a quantitative result about the antimicrobial potency of the peptides. These examinations were performed by analogy with the recommendations (M7-A3) edited by the NCCLS (National Committee for Clinical Laboratory Standards) by applying a dilution test in a liquid medium using chemically synthesized peptides (peptide sequences according to claims 1 to 3). Mueller Hinton Broth was used as the test medium according to the NCCLS recommendations unless indicated otherwise. […] The minimum inhibition concentrations are stated in [μg/ml].
(§4) A complete growth inhibition could not be achieved in this case. For determining the minimum inhibition concentration, the following microorganisms were used: • 1. Staphylococcus aureus ATCC 25923 • 2. Enterococcus faecalis ATCC 51299 (vancomycin-resistant) • 3. Streptococcus pneumoniae DSM 11865 (penicillin-resistant) • 4. Escherichia coli ATCC 25922 • 5. Pseudomonas aeruginosa ATCC 9027 • 6. Klebsiella pneumoniae ATCC 10031 • 7. Candida albicans ATCC 10231

The test system of experiment [2] is Streptococcus pneumoniae DSM 11865 (penicillin-resistant). The settings on record: DSM 11865, 2 h.
Excerpt: as §1, §2, §3, §4

For experiment [3], the system named is Enterococcus faecalis ATCC 51299 (vancomycin-resistant). The settings on record: ATCC 51299, 2 h.
Excerpt: as §1, §2, §3, §4

The test system of experiment [4] is Staphylococcus aureus ATCC 25923. The conditions noted are these: ATCC 25923, 2 h.
Excerpt: as §1, §2, §3, §4

Experiment [5] concerns Klebsiella pneumoniae ATCC 10031. The conditions noted are these: ATCC 10031, 2 h.
Excerpt: as §1, §2, §3, §4

For experiment [6], the system named is Pseudomonas aeruginosa ATCC 9027. The conditions noted are these: ATCC 9027, 2 h.
In experiment [7] the test system is Candida albicans ATCC 10231. The conditions noted are these: for minimum inhibition concentration: ATCC 10231, 2 h; for peptide concentration giving 75% inhibition of growth (value in parentheses): Mueller Hinton Broth, complete growth inhibition not achieved.
Excerpt: as §1, §2, §3, §4

For experiment [8], the system named is Pseudomonas aeruginosa ATCC 9027. The settings on record: Mueller Hinton Broth; complete growth inhibition not achieved.
Excerpt: as §1, §2
The antibiotic activity of bolisin analogues was examined by determining the minimum inhibition concentration. The minimum inhibition concentration of an analogue designates the lowest peptide concentration which is required to inhibit the growth of microorganisms completely after an incubation time of 18±2 h. This method allows to obtain a quantitative result about the antimicrobial potency of the peptides. These examinations were performed by analogy with the recommendations (M7-A3) edited by the NCCLS (National Committee for Clinical Laboratory Standards) by applying a dilution test in a liquid medium using chemically synthesized peptides (peptide sequences according to claims 1 to 3). Mueller Hinton Broth was used as the test medium according to the NCCLS recommendations unless indicated otherwise. […] The minimum inhibition concentrations are stated in [μg/ml].
as §4

Ends that are not written are not given here.

On to “YIRYKIRSARKRRKALK-OH [BOL-17, YIRYKIRSARKRRKALK]”, for which the minimum inhibition concentration worked out at 37.5 µg/mL in experiment [1]; 300 µg/mL in experiment [2]; 200 µg/mL in experiment [3]; 37.5 µg/mL in experiment [4]; 9.375 µg/mL in experiment [5]; 200 µg/mL in experiment [6].

For “YIRYKRRSARKRRKALK-OH [BOL-18, YIRYKRRSARKRRKALK]”, the minimum inhibition concentration in experiment [1] is 18.75 µg/mL; in experiment [2], greater than 300 µg/mL; in experiment [3], greater than 300 µg/mL; in experiment [4] it was 18.75 µg/mL; in experiment [5] it was 37.5 µg/mL; in experiment [6] it was 300 µg/mL.

For the substance “YIVRKIRSARKRRKALK-OH [BOL-83, YIVRKIRSARKRRKALK]”, the minimum inhibition concentration was greater than 300 µg/mL in experiment [1]; greater than 300 µg/mL in experiment [2]; greater than 300 µg/mL in experiment [3]; greater than 300 µg/mL in experiment [4]; greater than 300 µg/mL in experiment [5]; 300 µg/mL in experiment [7]. The minimum inhibition concentration in experiment [6] was greater than 300 µg/mL.

In the case of YIVYKIRSADKRSKALK-OH [Bolisin], the minimum inhibition concentration in experiment [1], in experiment [2], in experiment [3], in experiment [4], in experiment [5] and in experiment [7] was greater than 300 µg/mL each time. Also, in experiment [6], the minimum inhibition concentration was greater than 300 µg/mL.

For “YIVYKIRSAWKRWK-OH [BOL-70, YIVYKIRSAWKRWK]”, the “peptide concentration giving 75% inhibition of growth (value in parentheses)” value in experiment [8] was “(100) μg/ml”. Moreover, the minimum inhibition concentration is 100 µg/mL in experiment [1]; 150 µg/mL in experiment [2]; 150 µg/mL in experiment [3]; 100 µg/mL in experiment [4]; 75 µg/mL in experiment [5]; 37.5 µg/mL in experiment [7].

Regarding “YIVYKIRSAWKRWKAL [BOL-67, YIVYKIRSAWKRWKAL]”, in experiment [8], the “peptide concentration giving 75% inhibition of growth (value in parentheses)” value is listed as “(50) μg/ml”. In addition, the minimum inhibition concentration came out at 25 µg/mL in experiment [1]; 100 µg/mL in experiment [2]; 100 µg/mL in experiment [3]; 25 µg/mL in experiment [4]; 37.5 µg/mL in experiment [5]; 18.75 µg/mL in experiment [7].

Regarding “YIVYKIRSAWKRWKALK-OH [BOL-45, YIVYKIRSAWKRWKALK]”, in experiment [8], the “peptide concentration giving 75% inhibition of growth (value in parentheses)” value was “(25) μg/ml”. Moreover, the minimum inhibition concentration in experiment [1] was 12.5 µg/mL; in experiment [2], 100 µg/mL; in experiment [3], 100 µg/mL; in experiment [4], 18.75 µg/mL; in experiment [5], 4.7 µg/mL; in experiment [7], 18.75 µg/mL.

As to “YIVYKIRWAKKRKKALK-OH [BOL-59, YIVYKIRWAKKRKKALK]”, the “peptide concentration giving 75% inhibition of growth (value in parentheses)” value is on record as “(18.75) μg/ml” in experiment [8] and “(9.375) μg/ml” in experiment [7]. Moreover, the minimum inhibition concentration in experiment [1] was found to be 150 µg/mL; in experiment [2] it was 50 µg/mL; in experiment [3], 50 µg/mL; in experiment [4], 50 µg/mL; in experiment [5] it was 18.75 µg/mL.

As for “YIVYKIRWAKKRWKALK-OH [BOL-60, YIVYKIRWAKKRWKALK]”, the “peptide concentration giving 75% inhibition of growth (value in parentheses)” value in experiment [8] and in experiment [7] was “(18.75) μg/ml” in each case. The minimum inhibition concentration in experiment [1] worked out at 100 µg/mL; in experiment [2], 50 µg/mL; in experiment [3], 25 µg/mL; in experiment [4], 50 µg/mL; in experiment [5] it was 18.75 µg/mL.

On to “YIVYKIRWARKRRK-OH [BOL-73, YIVYKIRWARKRRK]”, for which the “peptide concentration giving 75% inhibition of growth (value in parentheses)” value in experiment [8] is “(9.375) μg/ml”. In addition, the minimum inhibition concentration in experiment [1] amounted to 50 µg/mL; in experiment [2], 18.75 µg/mL; in experiment [3], 25 µg/mL; in experiment [4], 37.5 µg/mL; in experiment [5] it was 18.75 µg/mL; in experiment [7], 9.375 µg/mL.

Consider “YIVYKIRWARKRRKAL [BOL-72, YIVYKIRWARKRRKAL]”, for which the “peptide concentration giving 75% inhibition of growth (value in parentheses)” value in experiment [8] is recorded as “(12.5) μg/ml”. Further, the minimum inhibition concentration came out at 100 µg/mL in experiment [1]; 18.75 µg/mL in experiment [2]; 25 µg/mL in experiment [3]; 75 µg/mL in experiment [4]; 18.75 µg/mL in experiment [5]; 18.75 µg/mL in experiment [7].

As to “YIVYKIRWARKRRKALK-OH [BOL-50, YIVYKIRWARKRRKALK]”, in experiment [8], the “peptide concentration giving 75% inhibition of growth (value in parentheses)” value is “(6.25) μg/ml”. In addition, the minimum inhibition concentration in experiment [1] amounted to 50 µg/mL; in experiment [2], 18.75 µg/mL; in experiment [3], 25 µg/mL; in experiment [4], 37.5 µg/mL; in experiment [5], 9.375 µg/mL; in experiment [7], 9.375 µg/mL.

“YIVYKIRWARKRSKALK-OH [BOL-49, YIVYKIRWARKRSKALK]”: in experiment [8], the “peptide concentration giving 75% inhibition of growth (value in parentheses)” value was “(12.5) μg/ml”. Also, the minimum inhibition concentration was determined as 50 µg/mL in experiment [1]; 18.75 µg/mL in experiment [2]; 25 µg/mL in experiment [3]; 75 µg/mL in experiment [4]; 18.75 µg/mL in experiment [5]; 18.75 µg/mL in experiment [7].

For the substance “YIVYKIRWARKRWKALK-OH [BOL-51, YIVYKIRWARKRWKALK]”, the “peptide concentration giving 75% inhibition of growth (value in parentheses)” value in experiment [8] was 25 µg/mL; in experiment [7] it was “(18.75) μg/ml”. For the same substance, the minimum inhibition concentration in experiment [1] amounted to 50 µg/mL; in experiment [2], 12.5 µg/mL; in experiment [3], 25 µg/mL; in experiment [4] it was 37.5 µg/mL; in experiment [5] it was 18.75 µg/mL; in experiment [6], 300 µg/mL.

Take “YIVYKIRWAWKRSKALK-OH [BOL-47, YIVYKIRWAWKRSKALK]”: the “peptide concentration giving 75% inhibition of growth (value in parentheses)” value in experiment [8] is recorded as “(25) μg/ml”. In addition, the minimum inhibition concentration in experiment [1] was determined as 18.75 µg/mL; in experiment [2] it was 18.75 µg/mL; in experiment [3], 25 µg/mL; in experiment [4], 18.75 µg/mL; in experiment [5] it was 9.375 µg/mL; in experiment [7] it was 18.75 µg/mL.
